The assay relates to MDA-MB-231 cells. Kind of assay: MDA-MB-231 proliferation culture, cell counts with cisplatin and/or EMF exposure. It counts as cell-based, human. The following applies: for reduction of cell number (cell count): cisplatin 20 μM, positive control, no EMF exposure, 5 days culture. The protocol: MDA-MB-231 cells, a human triple-negative breast cancer cell line, were obtained at passage 40 (Sigma: 92020424). The culture media used was high glucose DMEM (Gibco: 31053-028) supplemented with 1% GlutaMAX™ (Gibco: 35050-061) and 10% fetal bovine serum (Gibco).
Cells were thawed from frozen (−150° C.), placed in a tube with warm media and spun down for 5 minutes at 240×g. After pelleting the cells, the media was removed, and the cells resuspended and seeded into a T225 flask with 45 mL of media. Cells were placed in an incubator set to 37° C. and 5.0% CO2. Media was exchanged every 2-3 days. Cells proliferated until they reached 80-90% confluency. Upon reaching this threshold. cells were passaged. Cells were washed with DPBS and detached using TrypLE Express (Gibco). The detached cells were neutralized, centrifuged, and seeded in culture vessels at a density of 10,000 cells/cm^2.
For experimental harvests cells were detached as when passaging and neutralized with media. A 100 μL aliquot was taken and used for cell counts. Cells were counted on a NC-200 Nucleocounter (ChemoMetec). The remaining dissociated cells were centrifuged for 2 minutes at 4000 RPM. Following centrifugation, the supernatant was aspirated, and the cell pellets were immediately frozen at −80° C. for future RNA extraction.
Cisplatin is a platinum-based chemotherapy drug that inhibits DNA synthesis. Cisplatin is used in the treatment of many cancers, including breast cancer. Cisplatin (Millipore-Sigma: 232120) was dissolved in DPBS with 140 mM NaCl at a concentration of 1 mg/mL and stored at room temperature, protected from light. The solution was further diluted in culture media to obtain the desired concentration for experiments. DPBS with 140 mM NaCl was used as a vehicle control. Cisplatin at 20 μM was used as a positive control as this concentration reduced the cell number by more than 90%. Lower concentrations of 2 μM and 0.667 μM (one tenth and one thirtieth the concentration of the positive control, respectively) were used in combination with PEMF stimulation.
Cells were exposed, as previously described for mesenchymal stem cells, to a spatially uniform, time-varying magnetic field using Helmholtz coils. A description of the exposure system (coils, signal generator, incubators, etc.) is described in Example One.
Table 3 contains the parameters describing four different fields covering a wide range of shapes, intensities and frequencies. The two sinusoids are simple sine waves with no offset. The pulse waveform has a 10% duty cycle, creating sudden, large changes in the field's magnetic flux density (B). Finally, Experiment 4 consists of pairs of triangular waves with increasing separation equivalent to a decreasing frequency from 36 Hz to 10 Hz. The waveform consists of 15 pairs and has a period of approximately 900 ms. Positive results with Experiments 3 and 4 (described below) ledto repeating the exposures with the addition of a chemotherapy drug cisplatin). Additionally, Experiments 3 and 4 were also performed with “healthy” chondrocytes.
Chemotherapy drugs, including cisplatin, are a commonplace and proven method of treating cancer tumours despite a plethora of side effects. Large doses of these drugs can be a significant monetary and health concern for many patients so any method of reducing the dosage with an adjunct therapy is welcome. To test the combined effect of cisplatin and EMF exposure, two low concentrations (2 μM and 0.667 μM) of cisplatin were added to the culture media of MDA-MB-231 cells subjected to Experiment 3 and 4 exposures. Additionally, cells were cultured with 20 μM of cisplatin and no exposure as a “positive” control. […] The exposed cell groups are plotted relative to the unstimulated vehicle sample and when cultured with the vehicle show the same decrease in cell count as in Figure H (without vehicle). […]

“Also recorded” adds a separate entry of the source.

As for `N.N.[Cl][Pt][Cl]` [cisplatin, Cisplatin], the “reduction of cell number (cell count)” value is 90%. Moreover, where the note is “cisplatin 2 μM and 0.667 μM plus EMF exposure Experiment 3 or 4, statistically significant vs cisplatin alone”, the “effect on cell growth of adding EMF exposure to cisplatin” value is reported as “further inhibited”. Further, the “effect on proliferation / cell count” value (cisplatin 20 μM (high concentration), no EMF stimulation) was “drastic impact on the cell count; also recorded: inhibitory”. The “reduction of cell number (cell count)” value (listed as Cisplatin) was “more than 90%”. The “reduction of cell counts by combined treatment (cisplatin + EMF exposure)” value (cisplatin at 10% of positive control concentration (2 μM) with EMF exposure (Experiment 3 or 4), relative to negative control, 5 days) is reported as “more than 80%”. The “effect on normalized cell count” value (low concentrations of cisplatin (2 μM and 0.667 μM), relative to unstimulated vehicle) is given as “significantly lowered cell counts”.
